The text below walks through data of publication PMC6751206, “Epigenetic re-wiring of breast cancer by pharmacological targeting of C-terminal binding protein” (Cell Death & Disease, 2019).

The structures appear in SMILES notation.

Assay [1] addresses T1, CtBP1/CtBP2 heterodimer (Homo sapiens, UniProt P56545+Q13363).
T1 construct: CFP/YFP fusions of CtBP1 and CtBP2 (pSCFP3A, pSYFP2); heterodimer
The assay can be described thus: acceptor photobleaching FRET of CtBP1/CtBP2 dimerization in MDA-MB-231 cells. The assay is classed as cell-based. To be noted: 10 μM compound; live-cell heterodimerization read-out.

Assay [2] has as its target T1, CtBP1/CtBP2 heterodimer. Described as above. The assay is classed as cell-based. To be noted: live-cell heterodimerization read-out; dose-response.

In general, IC50 refers to the midpoint of a concentration-inhibition curve.

For the compound `O=C(O)C(=O)Nc1ccccc1` [CI22], the “FRET signal decrease at 10 μM” value on CtBP1/CtBP2 heterodimer [1] is reported as “significant decrease in the paired CtBP1-YFP/CtBP2-CFP FRET signal, after incubation with CI19, CI22, CI23 or CI24”. Turning to `Nc1nc(C(=O)C(=O)O)cs1` [CI24], on CtBP1/CtBP2 heterodimer [2], the IC50 lay within 10 to 20 µM. As for `CC(C)C(NC(=O)C(=O)O)C(=O)O` (stereo not drawn) [CI19], the “FRET signal decrease at 10 μM” value at CtBP1/CtBP2 heterodimer [1] was “significant decrease in the paired CtBP1-YFP/CtBP2-CFP FRET signal, after incubation with CI19, CI22, CI23 or CI24”.
